Source: PMC11187260, “Unraveling the interconversion pharmacokinetics and oral bioavailability of the major ginger constituents: [6]-gingerol, [6]-shogaol, and zingerone after single-dose administration in rats” (Frontiers in Pharmacology, 2024)
Where two headings read alike, the source gives them in different places.

Tests used:
Type in all cases: in vivo, Female Sprague Dawley rats
[1] = Percent recovery in urine and feces after intravenous or oral administration; details: for dose excreted: female, Sprague Dawley, rat, % of administered dose
Method: (§1) This study is composed of two sections; the first section involves an investigation of the interconversion pharmacokinetics of the pure compounds, and the second focuses on tissue distribution. All rats were transferred to metabolic cages and fasted overnight for at least 10 h. The animals were then randomly divided into four groups (6 rats/group) to receive a single intravenous (i.v.) administration of either 6G, 6S, zingerone, or vehicle via the lateral tail vein at a dosage of 3 mg/kg. After a 7-week washout period, the rats received 30 mg/kg of the same test compounds through a single oral (p.o.) administration. Following each administration, blood samples (300 µL) were collected in heparinized tubes from the lateral tail vein (while rats were under anesthesia with isoflurane) at specified time points: 0.083, 0.25, 0.5, 1, 1.5, 2, 3, 4, 6, 8, and 24 h after administration. An additional 1 mL of blood sample was collected from each rat at pre-dose (0 h) and post-dose (24 h) for clinical laboratory testing and safety evaluation. All heparinized blood samples were initially centrifuged at 5,000 × g, 4 °C, for 10 min. Subsequently, the plasma was carefully transferred to a cryotube as an aliquot sample and then stored at −40 °C until analysis. Urine and feces were collected during the intervals of 0–24 h and 24–48 h post-dosing, and their weights and volumes were documented. All collected urine and feces samples were stored at −40 °C until analysis.
Urine samples were centrifuged, and 50 µL of urine was extracted with 200 µL of 100% methanol. The mixture was vortexed for 10 min and subsequently centrifuged at 14,000 × g at 4 °C for 10 min. Feces and organs were weighed and homogenized with methanol (50:50% w/v). The supernatants of the extracted urine, feces, and organs were also filtered through a […] PVDF membrane (Chrome Tech, MN, USA) before analysis.
(§2) Investigation of glucuronide conjugations followed a previously published method with some modification ([Wang et al., 2017]; [Songvut et al., 2023]). A 50 μL aliquot of plasma, urine, or feces sample was incubated at 37 °C for a minimum of 30 min with 50 μL of β-glucuronidase (3,000 U/mL) in a sodium phosphate buffer (pH 6.8). For sample extraction, 150 μL of methanol containing 50 μg/L of IS was pipetted into the pre-incubated samples. Subsequently, the mixtures were vortexed for 10 min and then centrifuged at 14,000 × g at 4 °C for 10 min. The supernatants were filtered through a […] PVDF membrane (Chrome Tech, MN, United States) and then analyzed using the validated LC-MS/MS method.
(§3) Plasma concentration-time profiles were plotted using GraphPad Prism 9.3.0 (GraphPad Software, USA). The absolute oral bioavailability was calculated as follows: F = (AUC p.o./dose p.o.)/(AUC i.v./dose i.v.). The percentage recovery of each administered compound was calculated as the total amount of the drug found in urine or feces divided by the administered dose. The tissue-to-plasma concentration ratios (K p) were calculated by dividing the concentration in the tissue by the corresponding plasma concentration at the respective sampling time point.

[2] = Interconversion clearance between 6G and 6S after intravenous administration; details: female, Sprague-Dawley, rat, plasma, iv; single i.v. 3 mg/kg; read-out: CL20 (irreversible elimination clearance of 6S) (converted)
Method: The interconversion between 6G and 6S was determined using previously published methods ([Ebling and Jusko, 1986]; [Prueksaritanont et al., 2005]). The clearance of 6G biotransformed into 6S was calculated as CL12, while the reverse clearance (6S → 6G) was calculated as CL21. The irreversible elimination clearances of 6G and 6S were calculated as CL10 and CL20, respectively. The following equations were used in accordance with the notation provided in Supplementary Table S3. CL12=Dose^shogaol […] CL21=Dose^gingerol […] CL10=Dose^gingerol x AUCshogaolshogaol- Dose^shogaol […] CL20=Dose^shogaol […]- Dose^gingerol […]

[3] = Pharmacokinetics and oral bioavailability after single oral administration (30 mg/kg), plasma LC-MS/MS; details: for bioavailability / AUC(0-inf) / AUC(0-t) / Tmax: plasma, 30 mg/kg; for AUC(0-t): read-out: AUC(0-t); for Tmax: median [IQR]
Method: as §1
Plasma samples were processed through protein precipitation. In brief, 50 µL of plasma was mixed with 200 µL of methanol containing 50 ng/mL of IS (dihydrocapsaicin). The mixtures were vortexed and centrifuged at 14,000 × g at 4 °C for 10 min. The supernatant was filtered through a […] PVDF membrane (Chrome Tech, MN, USA) before analysis.
as §2
Quantitative analysis was conducted using liquid chromatography-tandem mass spectrometry (LC-MS/MS) with a Nexera X2 LCMS-8060NX instrument (Shimadzu, Japan). The instrument included a CBM-40lite system controller, CTO-40C column oven, SIL-40C XR autosampler, LC-40D XR solvent pump unit, FCV-DGU-403 degasser, and 20AH2 switching valve. The LC-MS/MS system was operated with a binary pump and equipped with a triple quadrupole mass spectrometer.
Pharmacokinetic parameters were assessed using PK Solutions software (version 2.0) with non-compartmental analysis. The AUC was calculated using the Linear-Log Trapezoidal Method. The maximum plasma concentration (Cmax) and time to reach maximum plasma concentration (Tmax) were taken directly from the graph.
as §3

[4] = Safety evaluation: physical appearance and blood chemistry after single i.v. or p.o. dose; details: for ALP / ALT / AST / BUN / Creatinine: post-dose (24 h), mean ± SD n=6; for Physical appearance: post-dose
Method: as §1
Plasma samples were collected at baseline (T0) and T24 h for the determination of blood chemistry, including levels of blood urea nitrogen (BUN), creatinine, aspartate transaminase (AST), alanine transaminase (ALT), and alkaline phosphatase (ALP). The analyses were conducted by the Exclusive Veterinary Professional Laboratory Center (Bangkok, Thailand). The creatinine level was determined using an enzymatic oxidase assay, while AST and ALT levels were determined using the procedure of the International Federation of Clinical Chemistry (IFCC) without pyridoxal phosphate activation.

[5] = female, Sprague-Dawley, rat, po, plasma analyte after [6]-gingerol p.o. 30 mg/kg, mean ± SD n=6
[6] = female, Sprague-Dawley, rat, po, plasma analyte after [6]-shogaol p.o. 30 mg/kg, mean ± SD n=6

With CCCCC/C=C/C(=O)CCc1ccc(O)c(OC)c1 [[6]-shogaol] the “parent compound recovered in urine” value ([1]; during 24–48 h) was “less than 1%”, the dose excreted ([1]; feces, iv, 3 mg/kg, intravenous administration 3 mg/kg of parent compound, read-out: % Recovery excretion, feces T 0–24 h) was < 0.001% and the dose excreted ([1]; feces, po, 30 mg/kg, oral administration 30 mg/kg of parent compound, read-out: % Recovery excretion, feces T 0–24 h) was 0.001 ± 0.001%. The dose excreted ([1]; feces, po, 30 mg/kg, oral administration 30 mg/kg of parent compound, read-out: % Recovery excretion, feces T 24–48 h) was 0.002 ± 0.002%, the dose excreted ([1]; urine, iv, 3 mg/kg, intravenous administration 3 mg/kg of parent compound, read-out: % Recovery excretion, urine T 0–24 h) was 0.003 ± 0.002% and the dose excreted ([1]; urine, iv, 3 mg/kg, intravenous administration 3 mg/kg of parent compound, read-out: % Recovery excretion, urine T 24–48 h) was < 0.001%. For the same compound, the dose excreted ([1]; urine, po, 30 mg/kg, oral administration 30 mg/kg of parent compound, read-out: % Recovery excretion, urine T 0–24 h) was 0.001 ± 0.001%, the dose excreted ([1]; urine, po, 30 mg/kg, oral administration 30 mg/kg of parent compound, read-out: % Recovery excretion, urine T 24–48 h) was < 0.001% and the “unchanged form in fecal excretion” value ([1]; within 48 h after intravenous or oral administration) was < 0.1%. The clearance [2] was 11.3 mL/min/kg, the bioavailability ([3]; female, Sprague-Dawley, rat, po, p.o. 30 mg/kg vs i.v. 3 mg/kg of the pure compound, mean ± SD n=6, read-out: %Oral bioavailability) was 0.15 ± 0.1% and the bioavailability ([3]; female, Sprague-Dawley, rat, po, p.o. 30 mg/kg vs i.v. 3 mg/kg of the pure compound, range among rats, read-out: %Oral bioavailability (range)) was 0.1 to 0.31%. The bioavailability ([3]; female, Sprague-Dawley, rat, po, p.o. 30 mg/kg vs i.v. 3 mg/kg, pure compounds, read-out: absolute oral bioavailability (upper bound)) was < 2%, the AUC(0-inf) [3, 5] was 10.3 ± 4.14 ng·h/mL and the AUC(0-t) [3, 5] was 10.2 ± 4.01 ng·h/mL. It also gave a Tmax ([3]; female, Sprague-Dawley, rat, po, plasma analyte after [6]-gingerol p.o. 30 mg/kg) of 15 min, an AUC(0-inf) [3, 6] of 66.9 ± 30.5 ng·h/mL and an AUC(0-t) [3, 6] of 66.9 ± 30.5 ng·h/mL. For the same compound, the Tmax ([3]; female, Sprague-Dawley, rat, po, plasma analyte after [6]-shogaol p.o. 30 mg/kg) was 45 min, the Cmax [3, 6] was 51.8 ± 20.9 ng/mL and the “presence of parent compound in plasma” value ([3]; following oral administration) was “up to 4 h”. For the same compound, the ALP ([4]; i.v. 3 mg/kg) was 49.50 ± 14.46 U/L, the ALT ([4]; i.v. 3 mg/kg) was 18.83 ± 3.92 U/L and the AST ([4]; i.v. 3 mg/kg) was 59.50 ± 5.61 U/L. The BUN ([4]; i.v. 3 mg/kg) was 14.17 ± 1.72 mg/dL, the Creatinine ([4]; i.v. 3 mg/kg) was 0.73 ± 0.02 mg/dL and the ALP ([4]; p.o. 30 mg/kg) was 39.17 ± 11.20 U/L. The ALT ([4]; p.o. 30 mg/kg) was 22.50 ± 5.89 U/L, the AST ([4]; p.o. 30 mg/kg) was 63.83 ± 11.77 U/L and the BUN ([4]; p.o. 30 mg/kg) was 14.00 ± 2.00 mg/dL. For the same compound, the Creatinine ([4]; p.o. 30 mg/kg) was 0.71 ± 0.02 mg/dL, the Physical appearance ([4]; i.v. 3 mg/kg) was “Normal” and the Physical appearance ([4]; p.o. 30 mg/kg) was “Normal”. For the same compound, the Tolerability ([4]; single i.v. 3 mg/kg or p.o. 30 mg/kg) was “exhibited tolerance”.
